Paper PMC4403932 (Journal of Medicinal Chemistry, 2015)
Read-outs that look alike come from different tables or passages of the source.

How the values were obtained:
Assay type in all cases: binding
[1] = biological target: T1, BRD9 (Homo sapiens, UniProt Q9H8M2); experiment: Isothermal titration calorimetry, BRD9; settings: for Kd: 50 mM HEPES pH 7.5, 150 mM NaCl, triplicate, read-out: KD; for Kd / N (stoichiometry) / ΔHobs: reverse titration; for LE (ligand efficiency): LE = ΔG/N, N number of non-hydrogen atoms
T1 construct: made in house
T1 sequence (Q9H8M2 136-240 limits assumed): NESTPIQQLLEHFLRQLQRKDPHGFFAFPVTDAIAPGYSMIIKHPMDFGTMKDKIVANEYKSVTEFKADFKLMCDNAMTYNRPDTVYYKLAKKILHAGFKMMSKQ

[2] = biological target: T2, BRD2(1) (Homo sapiens, UniProt P25440); experiment: Isothermal titration calorimetry, BRD2(1); settings: for Kd / TΔS / ΔG / N (stoichiometry) / ΔHobs: ITC, 15 °C; for Kd: 50 mM HEPES pH 7.5, 150 mM NaCl, triplicate; for Kd / N (stoichiometry) / ΔHobs: reverse titration; for LE (ligand efficiency): LE = ΔG/N, N number of non-hydrogen atoms
T2 construct: Fragments were tested in a thermal shift assay against bromodomains of the BET subfamily; made in house
Experimental: Experiments were carried out on an ITC200 titration microcalorimeter from MicroCal, LLC (GE Healthcare) equipped with a Washing module, with a cell volume of 0.2003 mL, and a 40 μL microsyringe. Experiments were carried out at 15 °C while stirring at 1000 rpm, in ITC buffer (50 mM HEPES, pH 7.5 (at 25 °C), 150 mM NaCl). The microsyringe was loaded with a solution of the protein sample (300−740 μM protein for BRD9 and BRD4(1), respectively, in ITC buffer) and was carefully inserted into the calorimetric cell which was filled with an amount of the ligand (0.2 mL, 20–25 μM in ITC buffer). The system was first allowed to equilibrate until the cell temperature reached 15 °C, and an additional delay of 60 s was applied. All titrations were conducted using an initial control injection of 0.3 μL followed by 38 identical injections of 1 μL with a duration of 2 s (per injection) and a spacing of 120 s between injections. The titration experiments were designed in such a fashion as to ensure complete saturation of the proteins before the final injection. The heat of dilution for the proteins was independent of their concentration and corresponded to the heat observed from the last injection, following saturation of ligand binding, thus facilitating the estimation of the baseline of each titration from the last injection. The collected data were corrected for protein heats of dilution (measured on separate experiments by titrating the proteins into ITC buffer) and deconvoluted using the MicroCal Origin software supplied with the instrument to yield enthalpies of binding (ΔH) and binding constants (KB) in the same fashion as that previously described in detail by Wiseman and co-workers.[66] Thermodynamic parameters were calculated using the basic equation of thermodynamics (ΔG = ΔH – TΔS = −RT ln KB, where ΔG, ΔH, and ΔS are the changes in free energy, enthalpy, and entropy of binding, respectively). In all cases a single binding site model was employed, supplied with the MicroCal Origin software package.

[3] = biological target: T1, BRD9; experiment: Protein stability (thermal) shift assay, BRD9
[4] = biological target: T3, BRD4(1) (Homo sapiens, UniProt O60885); experiment: Protein stability (thermal) shift assay, BRD4(1)
T3 construct: made in house

[5] = biological target: T4, PCAF (Homo sapiens, UniProt Q92831); experiment: Protein stability (thermal) shift assay, PCAF; settings: compound 10 μM, protein 2 μM; average of triplicate
T4 construct: representative BRDs from other structural subfamilies (family I, PCAF); made in house
T4 sequence (Q92831 723-827 limits assumed): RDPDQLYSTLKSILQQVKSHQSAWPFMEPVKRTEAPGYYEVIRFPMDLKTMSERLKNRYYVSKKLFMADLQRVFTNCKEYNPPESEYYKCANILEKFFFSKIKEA

[6] = biological target: T5, BRDT(2) (Homo sapiens, UniProt Q58F21); experiment: Protein stability (thermal) shift assay, BRDT(2); settings: compound 10 μM, protein 2 μM; average of triplicate; read-out: ΔTm Shift, BRDT(2)
T5 construct: made in house

[7] = biological target: T6, BRD4(2) (Homo sapiens, UniProt O60885); experiment: Protein stability (thermal) shift assay, BRD4(2); settings: compound 10 μM, protein 2 μM; average of triplicate
T6 construct: made in house

[8] = biological target: T7, BRDT(1) (Homo sapiens, UniProt Q58F21); experiment: Protein stability (thermal) shift assay, BRDT(1); settings: compound 10 μM, protein 2 μM; average of triplicate
T7 construct: made in house

[9] = biological target: T8, BAZ2B (Homo sapiens, UniProt Q9UIF8); experiment: Protein stability (thermal) shift assay, BAZ2B; settings: compound 10 μM, protein 2 μM; average of triplicate; read-out: ΔTm Shift, BAZ2BA
T8 construct: representative BRDs from other structural subfamilies (family I, PCAF); family III, CREBBP; family IV, BRD9; family V, BAZ2B; made in house
T8 sequence (Q9UIF8 2060-2164 limits assumed): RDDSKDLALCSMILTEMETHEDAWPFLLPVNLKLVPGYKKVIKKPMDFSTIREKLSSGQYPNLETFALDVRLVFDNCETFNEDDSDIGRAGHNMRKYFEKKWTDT

[10] = thermal shift, 10 μM compound, 2 μM protein, read-out: ΔTm

T2 sequence (P25440 74-180 limits assumed): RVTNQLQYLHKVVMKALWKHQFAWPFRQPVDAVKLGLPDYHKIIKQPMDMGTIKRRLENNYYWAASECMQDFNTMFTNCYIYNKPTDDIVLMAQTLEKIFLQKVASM

Row | Kd ([1]; ITC, 15 °C) [µM] | ΔG ([1]; ITC, 15 °C) | N (stoichiometry) ([1]; ITC, 15 °C) | ΔHobs ([1]; ITC, 15 °C) | LE (ligand efficiency) [1] | Kd [2] [µM] | TΔS [2] [kcal/mol] | ΔG [2] | N (stoichiometry) [2] | ΔHobs [2] | LE (ligand efficiency) [2] | ΔTm at 10 µM [5] [°C] | ΔTm at 10 µM [6] [°C] | ΔTm at 10 µM [7] [°C] | ΔTm at 10 µM [8] [°C] | ΔTm at 10 µM [9] [°C] | Compound | further results
1 | 0.397 ± 0.019 | –8.45 kcal/mol | 0.97 ± 0.005 | –9.63 ± 0.06 kcal/mol | 0.44 | 4.44 ± 0.162 | 0.44 | –7.06 kcal/mol | 0.99 ± 0.011 | –6.62 ± 0.09 kcal/mol | 0.37 | -0.45 | 1.8 | 0.6 | 0.0286 | 0.237 | COc1ccc(Br)cc1-c1nc(N)nc2[nH]cnc12 [Compound 7d, 2-Amino-6-(5-bromo-2-methoxyphenyl)-9H-purine] | ΔTm at 10 µM ([3]; compound 10 μM, protein 2 μM, average of triplicate, read-out: ΔTm Shift, BRD9): 3.6 °C; ΔTm at 10 µM [4, 10]: 3.2 °C
2 | 0.278 ± 0.015 | –8.65 kcal/mol | 1.03 ± 0.003 | –10.28 ± 0.04 kcal/mol | 0.43 | 1.42 ± 0.06 | 2.06 | –7.71 kcal/mol | 1.02 ± 0.006 | –5.65 ± 0.04 kcal/mol | 0.39 | 0.9 | 4 | 2.8 | 1.7 | 0.37 | Nc1nc(-c2cc(Br)cc3c2OCC3)c2nc[nH]c2n1 [Compound 11, 2-Amino-6-(5-bromo-2,3-dihydrobenzo[b]furan-7-yl)-9H-purine] | TΔS ([1]; ITC, 15 °C): –1.63 kcal/mol; ΔTm at 10 µM [3, 10]: 6.5 °C; ΔTm at 10 µM ([4]; compound 10 μM, protein 2 μM, average of triplicate, read-out: ΔTm Shift, BRD4(1)): 5.3 °C
